Here are results for 14 compounds from ChEMBL document CHEMBL1201862, “PubChem BioAssay data set” (2004).

Molecules are shown by their SMILES.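 Values below derive from 48-hour exposures of cells grown in 96-well plates, with endpoints linearly interpolated between the two concentrations bracketing the appropriate inhibition level. The concentration for 50% growth inhibition is given as GI50.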 Active and inactive are the calls of the source. No stated cut-off is given here; in the data, active = GI50 up to about 1.1 µM and inactive = higher.

Some test systems named below: OVCAR-4; A498; SF-539; SNB-19; OVCAR-8; UACC-257; NCI-H460; SK-MEL-2; KM12; HOP-62; ACHN; SW-620; OVCAR-3; K562; HCT-15; CAKI-1; RPMI-8226.
Common to all, as to assay: growth of human tumour cells (NCI), 48 h

Turning to `C=CCCn1nc(-c2ccccc2)oc1=O`, the GI50 in the experiment with OVCAR-4, in the experiment on A498, in the experiment with SF-539, with SNB-19, in the experiment on OVCAR-8 and in the experiment with UACC-257 was > 100 µM (inactive) each time. The GI50 in the experiment on NCI-H460, in the experiment with SK-MEL-2, in the experiment with KM12, with HOP-62, with ACHN and with SW-620 was > 100 µM (inactive) each time. Moreover, the GI50 is > 100 µM (inactive) in the experiment on OVCAR-3, > 100 µM (inactive) with K562, > 100 µM with HCT-15 and > 100 µM (inactive) with CAKI-1.

As to `CCOC(=O)C1(Cc2ccc3ccccc3c2)CCCCCN1` (centres undefined), the GI50 in the experiment with OVCAR-4 was 31.4 µM (inactive); in the experiment with SNB-19, 43.7 µM (inactive); with OVCAR-8, 39.6 µM (inactive); in the experiment with NCI-H460, 18.4 µM (inactive); in the experiment with HOP-62 it was 64.3 µM (inactive); in the experiment on RPMI-8226, 5.6 µM (inactive). The GI50 was 58.2 µM (inactive) with ACHN; 24.5 µM (inactive) in the experiment on SW-620; 45.3 µM (inactive) with OVCAR-3; 22.8 µM (inactive) in the experiment with K562; 18.7 µM with HCT-15; 9.23 µM (inactive) in the experiment with CAKI-1.

In the case of `CCOC(=O)N1Cc2ccoc2C1`, the GI50 in the experiment with OVCAR-4, with SF-539, in the experiment with SNB-19, in the experiment on OVCAR-8, in the experiment on UACC-257 and with NCI-H460 was > 100 µM (inactive) each time. Further, the GI50 with SK-MEL-2, in the experiment on KM12, in the experiment with HOP-62, with RPMI-8226, in the experiment with ACHN and in the experiment on SW-620 was > 100 µM (inactive) in each case. In addition, the values for the GI50 with OVCAR-3, with K562 and in the experiment on HCT-15 were > 100 µM (inactive), > 100 µM (inactive) and > 100 µM, respectively.

Take `Oc1cc(O)c2c(-c3c(O)c(-c4ccc(O)c(O)c4)[o+]c4cc(O)cc(O)c34)c(O)c(-c3ccc(O)c(O)c3)[o+]c2c1`: the GI50 was 27.5 µM (inactive) in the experiment on OVCAR-4; 38.5 µM (inactive) with A498; 25.6 µM (inactive) with SF-539; 36 µM (inactive) in the experiment with SNB-19; 36.6 µM (inactive) in the experiment on OVCAR-8; > 100 µM (inactive) in the experiment with UACC-257. Besides, the GI50 is 21.5 µM (inactive) in the experiment on NCI-H460; 35.1 µM (inactive) with KM12; 38.9 µM (inactive) with HOP-62; 63 µM (inactive) in the experiment on RPMI-8226; 21.7 µM (inactive) in the experiment on ACHN; 48.4 µM (inactive) in the experiment on SW-620. The GI50 in the experiment with OVCAR-3 is 20.7 µM (inactive); with K562, > 10 µM (inactive); in the experiment with HCT-15, 41.8 µM; with CAKI-1 it was 36.9 µM (inactive).

In the case of `O=C(CCC(=O)N/N=C/c1ccccc1O)N/N=C/c1ccccc1O`, the GI50 is > 100 µM (inactive) with OVCAR-4; > 10 µM (inactive) in the experiment on SF-539; 56.6 µM (inactive) in the experiment with SNB-19; 92 µM (inactive) with OVCAR-8; > 100 µM (inactive) with UACC-257; 17.5 µM (inactive) in the experiment on SK-MEL-2. For the same compound, the GI50 in the experiment with KM12 was > 100 µM (inactive); with RPMI-8226 it was > 100 µM (inactive); in the experiment on SW-620 it was > 100 µM (inactive); in the experiment on OVCAR-3, 42.1 µM (inactive); in the experiment on K562, > 100 µM (inactive); in the experiment with HCT-15, 51.4 µM. The GI50 in the experiment with CAKI-1 is > 100 µM (inactive).

Consider `c1ccc([P+](c2ccccc2)(c2ccccc2)C2Sc3ccccc3S2)cc1`, for which the GI50 was 18.9 µM (inactive) with OVCAR-4; 28.1 µM (inactive) in the experiment with A498; 18.3 µM (inactive) in the experiment with SF-539; 27.7 µM (inactive) in the experiment with SNB-19; 15.1 µM (inactive) in the experiment on OVCAR-8; 16.4 µM (inactive) in the experiment with UACC-257. Also, the GI50 in the experiment with NCI-H460 was 23.3 µM (inactive); with KM12 it was 21.9 µM (inactive); in the experiment on HOP-62, 23.1 µM (inactive); with RPMI-8226 it was 16.7 µM (inactive); in the experiment with ACHN, 17.3 µM (inactive); in the experiment with SW-620 it was > 100 µM (inactive). Further, the GI50 is 14.5 µM (inactive) in the experiment with OVCAR-3, 16.9 µM (inactive) with K562 and 14.6 µM (inactive) in the experiment on CAKI-1.

Consider `O=C(COc1ccccc1Cl)N1N=C(c2ccccc2)CC1(O)c1ccccc1` (centres undefined), for which the GI50 in the experiment with OVCAR-4 is 11.3 µM (inactive); in the experiment with SF-539, 18.9 µM (inactive); in the experiment on SNB-19, 16.4 µM (inactive); with OVCAR-8, 16.6 µM (inactive); with UACC-257, 20.7 µM (inactive); in the experiment on NCI-H460, 18 µM (inactive). For the same compound, the GI50 with SK-MEL-2 is 18.9 µM (inactive); with KM12 it was 21.2 µM (inactive); with HOP-62, 15.1 µM (inactive); in the experiment on RPMI-8226, 8.17 µM (inactive); in the experiment on ACHN, 17.1 µM (inactive); with SW-620, 26.5 µM (inactive). In addition, the GI50 in the experiment with OVCAR-3 is 15.9 µM (inactive); with K562 it was 14.3 µM (inactive); in the experiment on HCT-15 it was 12.9 µM; in the experiment with CAKI-1, 29 µM (inactive).

Regarding `CC1CN1c1c(C(=O)/C=C/c2ccc(Cl)cc2)c(-c2ccccc2)nn(C)c1=O` (centres undefined), the GI50 in the experiment on OVCAR-4 was 2.61 µM (inactive); in the experiment on A498, 4.08 µM (inactive); in the experiment on SF-539, 1.94 µM (inactive); with SNB-19, 9.71 µM (inactive); in the experiment with OVCAR-8, 2.55 µM (inactive); in the experiment with UACC-257, 3.67 µM (inactive). Further, the GI50 is 2.28 µM (inactive) with NCI-H460; 2.4 µM (inactive) in the experiment with SK-MEL-2; 3.3 µM (inactive) in the experiment on KM12; 2.82 µM (inactive) in the experiment with HOP-62; 2.33 µM (inactive) in the experiment with ACHN; 2.44 µM (inactive) with SW-620. For the same compound, the GI50 in the experiment with OVCAR-3 is 2.6 µM (inactive); in the experiment with K562 it was 2.82 µM (inactive); in the experiment with HCT-15, 1.82 µM; with CAKI-1 it was 4.74 µM (inactive).

As to `CCOC(=O)C1(C)CCCCC(=O)N1` (centres undefined), the GI50 in the experiment on OVCAR-4, with SNB-19, in the experiment on OVCAR-8, with NCI-H460, in the experiment with HOP-62 and in the experiment with ACHN was > 100 µM (inactive) each time. In addition, the GI50 was > 100 µM (inactive) in the experiment with SW-620; > 100 µM (inactive) in the experiment with OVCAR-3; > 100 µM (inactive) with K562; > 100 µM in the experiment with HCT-15; > 100 µM (inactive) in the experiment with CAKI-1.

Regarding `CC(=O)OC12/C(=N/O)CCCCCC1c1ccccc12` (centres undefined), the GI50 with OVCAR-4 is 60.8 µM (inactive); in the experiment with SNB-19, > 100 µM (inactive); in the experiment on OVCAR-8, > 100 µM (inactive); with UACC-257 it was 74.8 µM (inactive); in the experiment on NCI-H460, > 100 µM (inactive); in the experiment on SK-MEL-2, > 100 µM (inactive). In addition, the GI50 in the experiment on KM12 is > 100 µM (inactive); with HOP-62, > 100 µM (inactive); with RPMI-8226, 33.6 µM (inactive); in the experiment on ACHN, 95.3 µM (inactive); in the experiment on SW-620 it was > 100 µM (inactive); in the experiment with K562 it was 39.2 µM (inactive). For the same compound, the GI50 in the experiment with HCT-15 is > 100 µM.

In the case of `CC1=C(C)C(=O)c2c(cc3ccccn23)C1=O`, the GI50 is 27.8 µM (inactive) in the experiment on OVCAR-4; 21.2 µM (inactive) in the experiment on A498; 20 µM (inactive) with SF-539; 15.3 µM (inactive) in the experiment with SNB-19; 22.8 µM (inactive) in the experiment with OVCAR-8; 15.5 µM (inactive) in the experiment with NCI-H460. Besides, the GI50 in the experiment with KM12 was 16.6 µM (inactive); in the experiment on RPMI-8226, 15.8 µM (inactive); in the experiment with ACHN, 32.2 µM (inactive); with SW-620, 19.2 µM (inactive); with OVCAR-3, 14.6 µM (inactive); in the experiment on K562, 27.5 µM (inactive). The compound also gave a GI50 in the experiment on HCT-15 of 14.4 µM.

In the case of `Cc1cc(C(O)CCCc2ccccc2)cc(C)c1O` (centres undefined), the GI50 in the experiment on A498 was 24.5 µM (inactive); in the experiment with SF-539, 38.2 µM (inactive); in the experiment on SNB-19 it was 14.6 µM (inactive); in the experiment on OVCAR-8 it was 47.5 µM (inactive); in the experiment on UACC-257, 25.8 µM (inactive); in the experiment with NCI-H460 it was 36.6 µM (inactive). Besides, the GI50 in the experiment on SK-MEL-2 is 33.8 µM (inactive); with KM12, 29.6 µM (inactive); in the experiment with HOP-62, 33.3 µM (inactive); in the experiment with RPMI-8226, 24.1 µM (inactive); with ACHN, 24.2 µM (inactive); with SW-620, 75.7 µM (inactive). The GI50 in the experiment on OVCAR-3 is 31.1 µM (inactive); with K562, 28.6 µM (inactive); in the experiment with HCT-15 it was 45.9 µM.

Turning to `COc1ccccc1C(O)(c1ccccc1)C(O)(c1ccccc1)c1ccccc1OC` (centres undefined), the GI50 in the experiment on OVCAR-4, in the experiment with A498, in the experiment with SF-539, in the experiment with SNB-19, in the experiment with OVCAR-8 and with UACC-257 was > 100 µM (inactive) in each case. The GI50 is > 100 µM (inactive) in the experiment on NCI-H460; > 100 µM (inactive) in the experiment on SK-MEL-2; > 100 µM (inactive) in the experiment with KM12; > 100 µM (inactive) with HOP-62; > 24.4 µM (inactive) in the experiment with RPMI-8226; > 100 µM (inactive) in the experiment with ACHN. Besides, the GI50 in the experiment with SW-620 is > 100 µM (inactive); in the experiment on OVCAR-3 it was > 100 µM (inactive); in the experiment on K562, > 100 µM (inactive); in the experiment on HCT-15, > 100 µM.

With `Nc1ccc(C2=N/C(=C\c3cccc(N)c3)C(=O)O2)cc1`, the GI50 with OVCAR-4, in the experiment with SF-539, with SNB-19, in the experiment on OVCAR-8, in the experiment with SK-MEL-2 and in the experiment on KM12 was > 100 µM (inactive) each time. Moreover, the GI50 in the experiment with ACHN was > 100 µM (inactive); in the experiment with SW-620, > 100 µM (inactive); in the experiment with OVCAR-3, > 100 µM (inactive); in the experiment with K562, > 100 µM (inactive); in the experiment on HCT-15, > 100 µM; in the experiment with CAKI-1 it was > 100 µM (inactive).
